Measured values: patent US20040116346A1, “Affinity small molecules for the EPO receptor” (priority 2002, published 2004)

Key:
[1] = tested on: TF-1 and UT-7 cells; assay: biological testing in cell lines (cell proliferation assay and cell signaling assay); format: cell-based
Text: Compounds identified in the initial screen were further tested for their biological activity in two assays: a cell proliferation assay and a cell signaling assay in TF-1 and UT-7 cells. The hit rate in cell proliferation was 0.16%; hit rate in cell signaling was 0.25%.
At the end of the biological testing in cell lines TF-1 and UT-7, E4, E5, E5 analogs and E6 molecules were some of the compounds identified as showing the best activity.
Compounds identified in the initial screen were further tested for their biological activity in two assays: a cell proliferation assay and a cell signaling assay in TF-1 cells. The hit rate in cell proliferation was 0.16%; hit rate in cell signaling was 0.25%.
At the end of the biological testing in cell line, E4, E5, E5 analog, and E6 molecules were some of the compounds identified as showing the best activity.

[2] = tested on: TF-1 cells; assay: Cell proliferation; format: cell-based; conditions: TF-1 cells stimulated for 96 hours
Procedure: TF-1 cells were stimulated for 96 hours with different non-peptide EPO-R modulators, and it was observed that the non-peptide EPO binding molecules stimulated cellular proliferation in dose-responsive manner and to the extent of the natural hormone.

[3] = tested on: CD34+cells; assay: erythroid colony formation in methylcellulose, CD34+ cells; format: cell-based; conditions: colonies counted on day 14
Text: CD34+cells were isolated and seeded in the presence of compound. The colonies were counted on day 14.

[4] = tested on: carboplatin-treated 8 week old C57BL mice; assay: Carboplatin induced anemia model (hematocrit); format: in vivo, mouse; conditions: mouse, in vivo
Procedure: Mice were treated with Carboplatin agent (available from Sigma, used regularly in chemotherapy) and a drop in hematocrit was induced. […] (FIGS. 9-11)
Determination of Effect of Non-peptide EPO-R Binding Small Molecule on Hematocrit in Carboplatin-Induced Anemia in 8 Week C57BI Male Mice
Preparation of injection solutions: Vehicle—Saline with 0.1 mg/mL BSA; Add 30 mg of BSA to 300 mL Saline; Vacuum filter under sterile conditions in laminar flow hood; Aliquot the saline (0.1 mg/mL BSA) solution into mini-sorp tubes. At least 41×7 mL aliquots should be prepared. Place caps on the tubes and store refrigerated at 4° C.;
Carboplatin—Dose of 120 mg/kg: Calculations for single injection given to 36 male mice (8 wks old˜25 g): […]×0.025 kg×36 mice=108 mg; Injections are delivered i.p. in a volume of 0.5 cc/mouse=0.5 cc/mouse×36 mice=18 cc; Carboplatin at 6 mg/mL for 36 mice: 108 mg/18 cc.; 120 mg/20 cc; On day of injection, add 120 mg carboplatin (Sigma #C2538) to 20 cc saline in a 100 cc beaker containing a stirring bar. Cover beaker with parafilm. Mix until the carboplatin has completely dissolved.
11 nmole/kg/mouse/day×0.025 kg×12 mice=3.3 nmoles/day; Injections are delivered i.p. in a volume of 0.5 cc/mouse/day=0.5 cc/mouse/day×12 mice=6 cc/day; non-peptide EPO-R binding small molecule for […]: 3.3 nmoles/6 cc each day: 3.85 nmole/7 cc each day; non-peptide EPO-R binding small molecule aliquot at 2 mM=2 nmole/uL; 3.85 nmole per day in 7 cc (0.55 nmole/mL); Therefore: 3.85 nmole divided by 2 nmole/uL stock=1.925 uL at 2 mM; Prepare in advance at least 10 aliquots of non-peptide EPO-R binding small molecule at 2 mM in small microfuge tubes, each with a volume of 2 uL. Freeze these aliquots; On each day of injections, add 1 thawed aliquot of the non-peptide EPO-R binding small molecule at 2 mM containing a 2 uL volume to a tube containing 7 cc of sterile saline (0.1 mg/mL BSA). […]

Cc1ccc(Cl)cc1Nc1nc2nc(C)c(NCC3CC3)cn2n1 [Compound E5]
maximum activity compared to EPO natural hormone ([1]; cell line (TF-1 cells)): maximum activity comparable to that of the maximum activity of EPO
maximum activity compared to EPO natural hormone ([1]; cell lines TF-1 and UT-7, in the presence of low levels of EPO): maximum activity comparable to that of the maximum activity of EPO
cellular proliferation [2]: proliferative effect
cooperation with EPO on erythroid colony formation [3]: cooperation
hematocrit levels in animals treated with carboplatin [4]: restore hematocrit levels
